Measured values from PMC10004634 (PLOS ONE, 2023).
Like-named read-outs stand apart in the source and are kept apart here.

Assays:
Assay in all cases: biochemical
Design in all cases: KINOMEscan scanMAX competition binding, DNA-tagged kinases, qPCR read-out, percent control at 300 nM
DDR2 = target: T1, DDR2 (Homo sapiens, UniProt Q16832)
T1 sequence (Q16832 1-855): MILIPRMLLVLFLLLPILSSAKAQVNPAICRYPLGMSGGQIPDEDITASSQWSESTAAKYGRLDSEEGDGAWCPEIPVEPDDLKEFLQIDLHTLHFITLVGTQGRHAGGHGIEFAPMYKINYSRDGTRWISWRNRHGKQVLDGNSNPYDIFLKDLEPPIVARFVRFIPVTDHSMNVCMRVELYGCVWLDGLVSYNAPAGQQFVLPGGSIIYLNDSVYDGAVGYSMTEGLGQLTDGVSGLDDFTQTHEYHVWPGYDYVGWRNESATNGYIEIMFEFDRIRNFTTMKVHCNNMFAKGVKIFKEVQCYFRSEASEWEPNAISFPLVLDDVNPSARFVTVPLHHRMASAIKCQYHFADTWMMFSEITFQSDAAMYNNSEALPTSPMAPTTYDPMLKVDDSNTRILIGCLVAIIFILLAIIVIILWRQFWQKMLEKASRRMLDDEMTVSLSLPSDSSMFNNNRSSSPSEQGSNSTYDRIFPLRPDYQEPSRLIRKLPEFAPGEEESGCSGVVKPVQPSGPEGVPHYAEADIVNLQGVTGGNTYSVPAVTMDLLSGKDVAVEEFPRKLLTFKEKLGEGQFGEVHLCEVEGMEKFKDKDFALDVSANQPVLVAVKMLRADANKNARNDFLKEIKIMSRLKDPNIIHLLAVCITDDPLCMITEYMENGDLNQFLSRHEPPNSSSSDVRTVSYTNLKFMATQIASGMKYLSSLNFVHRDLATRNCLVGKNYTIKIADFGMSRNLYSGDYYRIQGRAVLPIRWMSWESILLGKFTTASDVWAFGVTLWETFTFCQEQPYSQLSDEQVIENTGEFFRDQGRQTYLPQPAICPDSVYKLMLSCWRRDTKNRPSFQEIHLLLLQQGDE

BRK = target: T2, BRK (Homo sapiens, UniProt Q13882)
T2 construct: gene PTK6

RIPK4 = target: T3, RIPK4 (Homo sapiens, UniProt P57078)
T3 sequence (P57078 1-832): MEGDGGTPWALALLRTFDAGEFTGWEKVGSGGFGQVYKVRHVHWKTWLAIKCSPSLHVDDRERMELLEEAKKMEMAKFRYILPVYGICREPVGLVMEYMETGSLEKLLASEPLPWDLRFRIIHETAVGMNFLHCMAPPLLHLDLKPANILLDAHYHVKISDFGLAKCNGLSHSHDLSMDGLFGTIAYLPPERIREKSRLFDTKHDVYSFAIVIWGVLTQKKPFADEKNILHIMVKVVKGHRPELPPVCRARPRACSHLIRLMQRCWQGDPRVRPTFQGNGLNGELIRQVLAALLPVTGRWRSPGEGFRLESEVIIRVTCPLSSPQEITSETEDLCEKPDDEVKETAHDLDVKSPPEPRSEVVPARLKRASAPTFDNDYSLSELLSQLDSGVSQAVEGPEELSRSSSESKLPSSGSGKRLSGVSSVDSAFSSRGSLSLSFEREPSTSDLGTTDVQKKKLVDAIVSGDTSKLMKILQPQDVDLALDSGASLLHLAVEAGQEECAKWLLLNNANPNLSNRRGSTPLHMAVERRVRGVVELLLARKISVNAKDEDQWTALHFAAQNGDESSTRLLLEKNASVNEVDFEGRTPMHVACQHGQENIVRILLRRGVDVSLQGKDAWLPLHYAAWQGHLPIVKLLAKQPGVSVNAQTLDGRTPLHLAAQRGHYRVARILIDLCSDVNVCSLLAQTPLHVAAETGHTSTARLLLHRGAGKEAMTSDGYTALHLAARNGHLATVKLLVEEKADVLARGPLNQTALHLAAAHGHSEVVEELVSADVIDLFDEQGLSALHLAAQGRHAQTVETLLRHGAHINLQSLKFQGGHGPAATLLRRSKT

EPHB6 = target: T4, EPHB6 (Homo sapiens, UniProt O15197)
T4 sequence (O15197 1-1021): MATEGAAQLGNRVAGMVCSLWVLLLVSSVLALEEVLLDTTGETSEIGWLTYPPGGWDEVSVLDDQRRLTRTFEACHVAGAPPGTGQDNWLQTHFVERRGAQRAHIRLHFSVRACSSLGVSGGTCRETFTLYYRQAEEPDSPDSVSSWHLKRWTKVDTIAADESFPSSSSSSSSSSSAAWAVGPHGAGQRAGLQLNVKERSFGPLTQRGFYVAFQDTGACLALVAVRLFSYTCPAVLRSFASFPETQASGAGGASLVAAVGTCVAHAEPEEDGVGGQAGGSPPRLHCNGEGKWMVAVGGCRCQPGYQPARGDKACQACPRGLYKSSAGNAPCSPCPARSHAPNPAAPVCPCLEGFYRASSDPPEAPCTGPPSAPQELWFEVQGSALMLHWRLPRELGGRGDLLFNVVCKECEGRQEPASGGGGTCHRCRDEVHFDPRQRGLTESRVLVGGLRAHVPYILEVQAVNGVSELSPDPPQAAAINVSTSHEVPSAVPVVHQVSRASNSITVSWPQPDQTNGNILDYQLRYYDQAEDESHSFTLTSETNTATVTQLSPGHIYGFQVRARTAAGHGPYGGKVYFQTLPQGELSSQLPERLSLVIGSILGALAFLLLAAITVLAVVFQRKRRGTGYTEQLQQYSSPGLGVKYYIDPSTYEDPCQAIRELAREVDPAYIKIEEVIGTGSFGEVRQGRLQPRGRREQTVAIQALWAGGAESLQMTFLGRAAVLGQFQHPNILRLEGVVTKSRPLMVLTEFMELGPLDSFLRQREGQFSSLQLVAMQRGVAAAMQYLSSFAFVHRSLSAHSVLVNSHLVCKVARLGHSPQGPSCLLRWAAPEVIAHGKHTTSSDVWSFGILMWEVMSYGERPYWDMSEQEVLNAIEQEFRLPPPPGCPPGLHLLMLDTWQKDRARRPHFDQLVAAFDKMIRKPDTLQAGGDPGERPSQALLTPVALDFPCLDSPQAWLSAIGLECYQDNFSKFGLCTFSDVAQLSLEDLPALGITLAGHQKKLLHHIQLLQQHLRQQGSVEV

[1] = read-out: Percent control / Acalabrutinib
[2] = read-out: Percent control / Ibrutinib
[3] = read-out: Percent control / Tirabrutinib
[4] = read-out: Percent control / Zanubrutinib

T2 sequence (Q13882 whole entry): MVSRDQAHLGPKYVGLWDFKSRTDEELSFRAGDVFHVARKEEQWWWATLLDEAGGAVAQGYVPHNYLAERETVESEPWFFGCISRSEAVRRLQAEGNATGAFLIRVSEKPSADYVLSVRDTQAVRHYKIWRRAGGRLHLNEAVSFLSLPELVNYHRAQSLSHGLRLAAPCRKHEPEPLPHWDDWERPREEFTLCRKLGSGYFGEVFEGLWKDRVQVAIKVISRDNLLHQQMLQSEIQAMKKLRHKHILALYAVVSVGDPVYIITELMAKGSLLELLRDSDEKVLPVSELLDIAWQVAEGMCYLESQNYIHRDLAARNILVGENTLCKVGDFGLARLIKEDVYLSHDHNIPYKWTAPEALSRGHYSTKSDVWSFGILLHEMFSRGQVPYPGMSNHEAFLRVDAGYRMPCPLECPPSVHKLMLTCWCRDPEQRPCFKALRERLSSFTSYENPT

Q: For CC#CC(=O)N1CCC[C@H]1c1nc(-c2ccc(C(=O)Nc3ccccn3)cc2)c2c(N)nccn12 [Acalabrutinib], which remaining binding at 0.3 µM (DDR2; [1]) is on record?
A: Its remaining binding at 0.3 µM is 95%.

Q: What about the remaining binding at 0.3 µM (BRK; [1]) of the same molecule?
A: The remaining binding at 0.3 µM was 87%.

Q: And the remaining binding at 0.3 µM (RIPK4; [1])?
A: The remaining binding at 0.3 µM was 85%.

Q: And the remaining binding at 0.3 µM (EPHB6; [1])?
A: The remaining binding at 0.3 µM was 85%.

Q: Which results are given for C=CC(=O)N1CCC[C@@H](n2nc(-c3ccc(Oc4ccccc4)cc3)c3c(N)ncnc32)C1 [Ibrutinib]?
A: remaining binding at 0.3 µM (DDR2; [2]): 80%; remaining binding at 0.3 µM (BRK; [2]): 3.4%; remaining binding at 0.3 µM (RIPK4; [2]): 76%; remaining binding at 0.3 µM (EPHB6; [2]): 46%

Q: Which remaining binding at 0.3 µM (DDR2; [3]) does the source give for CC#CC(=O)N1CC[C@@H](n2c(=O)n(-c3ccc(Oc4ccccc4)cc3)c3c(N)ncnc32)C1 [Tirabrutinib] here?
A: Its remaining binding at 0.3 µM is 88%.

Q: And the remaining binding at 0.3 µM (RIPK4; [3])?
A: The remaining binding at 0.3 µM was 70%.

Q: What about the remaining binding at 0.3 µM (EPHB6; [3]) of the same molecule?
A: Its remaining binding at 0.3 µM is 70%.

Q: Which remaining binding at 0.3 µM (BRK; [4]) does the source give for C=CC(=O)N1CCC([C@@H]2CCNc3c(C(N)=O)c(-c4ccc(Oc5ccccc5)cc4)nn32)CC1 [Zanubrutinib] here?
A: The remaining binding at 0.3 µM was 35%.

Q: What about the remaining binding at 0.3 µM (RIPK4; [4]) of the same molecule?
A: The remaining binding at 0.3 µM was 91%.

Q: And the remaining binding at 0.3 µM (EPHB6; [4])?
A: Its remaining binding at 0.3 µM is 96%.
